For orientation: inhibition means the change of the read-out against control, counted positive when it falls. As usually defined, the IC50 is the concentration at which inhibition is half-maximal.

The subject of test [1] is rabbit and human penile corpus cavernosum. The following applies: cited from earlier work.
Test [2] has as its system opossum internal anal sphincter muscle. The settings on record: cited from earlier work.
Another test has as its system live female rabbits. The settings on record: cited from earlier work.
Test [3] relates to experimental autoimmune encephalomyelitis. The following applies: cited from earlier work.
The next test relates to guinea pigs. The following applies: nebulizer treatment, allergic asthma model; cited from earlier work.
In a further test the test system is live male rabbits. The settings on record: cited from earlier work.
The subject of test [4] is corpus cavernosum of the diabetic person. The following applies: ex vivo; cited from earlier work.
The target of the next test is T1, Arginase (Homo sapiens, UniProt P05089).
T1 construct: Arginase protein was recombinantly expressed in Escherichia coli
T1 sequence (P05089 1-322): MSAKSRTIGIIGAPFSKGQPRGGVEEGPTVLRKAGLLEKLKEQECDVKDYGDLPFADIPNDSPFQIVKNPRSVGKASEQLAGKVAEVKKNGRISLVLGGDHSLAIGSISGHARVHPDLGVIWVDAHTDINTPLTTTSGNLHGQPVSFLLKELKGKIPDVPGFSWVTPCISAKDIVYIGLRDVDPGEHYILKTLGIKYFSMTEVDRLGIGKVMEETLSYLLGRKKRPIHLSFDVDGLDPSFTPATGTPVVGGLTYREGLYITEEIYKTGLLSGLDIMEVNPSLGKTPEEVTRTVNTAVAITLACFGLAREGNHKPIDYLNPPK
The test can be described thus: Arginase Thioornithine Generating Assay (TOGA). The format is biochemical. The settings on record: for IC50: recombinant arginase 1.88 nM, thioarginine substrate. The protocol: Arginase Thioornithine Generating Assay (TOGA)
Compounds were serially diluted in ten 3-fold steps in DMSO starting from 10 mM DMSO stocks. Compound dilutions or DMSO alone were then dispensed from the dilution plate into a Greiner black 384-well assay plate (catalog #781086) using an Echo 555 acoustic liquid handler (Labcyte).
Arginase protein was recombinantly expressed in Escherichia coli. Purified protein was then diluted in assay buffer (50 mM Tris pH 7.5, 50 mM NaCl, 1 mM manganese chloride, 0.05% bovine serum albumin to obtain a final Arginase concentration of 1.88 nM. Arginase solution (20 μL) or buffer alone (20 μL) were dispensed to wells of the assay plate using a BioRAPTR liquid dispenser (Beckman Coulter). Assay plates containing compound and arginase enzyme were incubated at room temperature for 30 minutes. Afterwards, 5 μL of 2.5 mM thioarginine (Cayman Chemicals) in assay buffer were added to each well of the assay plate using a BioRAPTR liquid dispenser. Plates were incubated at room temperature for 60 minutes and reactions were quenched by addition of 15 μL of 200 uM 7-Diethylamine-3-(4-maleimidophenyl)-4-methylcoumarin (Sigma Chemical) in 70% ethanol. Plates were briefly shaken to mix and the fluorescence was measured in an Spectramax plate reader (Molecular Devices) with a 410 nm excitation wavelength and an 490 nm emission wavelength.
Potencies were calculated by […] to the four parameter logistic IC50 equation.

The mark [5] stands for this setting: Top Dose 10000 nM, read-out: Percent Inhibition at Top Dose.

As for `N[C@@H](CCCCB(O)O)C(=O)O` [ABH, (S)-2-amino-6-boronohexanoic acid], in test [1], the “nitric oxide-dependent relaxation of corpus cavernosum” value is given as “enhances the nitric oxide-dependent relaxation of this tissue”. Moreover, in test [2], the “relaxation of internal anal sphincter muscle” value was “relax this muscle”. Besides, the “engorgement response in the genitalia” value with live female rabbits is recorded as “enhances the engorgement response”. In addition, the disease score entry in test [3] is reported as “improves the disease score of animals”. In addition, the airway hyperresponsiveness result with guinea pigs was “prevents airway hyperresponsiveness”. Moreover, the erectile response entry with live male rabbits is listed as “enhances the erectile response”. Moreover, the nitric oxide biosynthesis entry in test [4] was “restores nitric oxide biosynthesis”.

Regarding `N[C@@]1(C(=O)O)C[C@H]2C[C@@H](NCC(F)(F)F)C[C@H]2[C@@H]1CCCB(O)O` [Example 49, (1S,2S,3aR,5R,6aR)-2-amino-1-(3-boronopropyl)-5-((2,2,2-trifluoroethyl)amino)octahydropentalene-2-carboxylic acid], the inhibition at 10 µM at Arginase (setting [5]) turned out to be 85.9%.

On to `N[C@@H](CO)C(=O)N1C[C@@H]2C[C@@](N)(C(=O)O)[C@@H](CCCB(O)O)[C@@H]2C1` [Example 6, (3aR,4S,5S,6aR)-2-(L-seryl)-5-amino-4-(3-boronopropyl)octahydrocyclopenta[c]pyrrole-5-carboxylic acid], for which the inhibition at 10 µM on Arginase (setting [5]) came out at 94.2%. On Arginase, the IC50 is 179 nM.

`NC1(C(=O)O)CN2CCNC[C@H]2C1CCCB(O)O` (stereo partly drawn) [Example 38a, (8aR)-7-amino-8-(3-boronopropyl)octahydropyrrolo[1,2-a]pyrazine-7-carboxylic acid]: the inhibition at 10 µM at Arginase (setting [5]) was determined as 63%.

`CN1CC[C@@H]2[C@H]1C[C@@H](CCCB(O)O)C2(N)C(=O)O` (relative stereo) [Example 32, rel-(3aR,5R,6aR)-4-amino-5-(3-boronopropyl)-1-methyloctahydrocyclopenta[b]pyrrole-4-carboxylic acid]: the inhibition at 10 µM on Arginase (setting [5]) was found to be 97.2%.

For “(1S,2S,3aR,4S,5S,6aS)-2-amino-1-(3-boronopropyl)-4-fluoro-5-(methylamino)octahydropentalene-2-carboxylate [Example 55b]”, the “Percent Inhibition at Top Dose” value on Arginase (Top Dose 10000 nM) was determined as 101.7%. The IC50 at Arginase was 14.3 nM.

`N[C@@]1(C(=O)O)C[C@H]2[C@H](F)[C@@H](O)C[C@H]2[C@@H]1CCCB(O)O` [Example 54a, (1S,2S,3aR,4S,5S,6aS)-2-amino-1-(3-boronopropyl)-4-fluoro-5-hydroxyoctahydropentalene-2-carboxylate]: the inhibition at 10 µM at Arginase (setting [5]) amounted to 101%.

For the molecule `N=C(N)N1C[C@@H]2C[C@@](N)(C(=O)O)[C@@H](CCCB(O)O)[C@@H]2C1` (single isomer, unassigned) [Example 11a], the inhibition at 10 µM on Arginase (setting [5]) came out at 67.2%.

Take `NCCN1C[C@@H]2C[C@@](N)(C(=O)O)[C@@H](CCCB(O)O)[C@@H]2C1` [Example 9, (3aR,4S,5S,6aR)-5-amino-2-(2-aminoethyl)-4-(3-boronopropyl)octahydrocyclopenta[c]pyrrole-5-carboxylic acid]: on Arginase (setting [5]), the inhibition at 10 µM stood at 98%.

With `N[C@@]1(C(=O)O)C[C@H]2C(=O)NC[C@H]2[C@@H]1CCCB(O)O` (single isomer, unassigned) [Example 23a], the inhibition at 10 µM on Arginase (setting [5]) amounted to 86.5%.

As for `N[C@@]1(C(=O)O)C[C@H]2CNC[C@H]2[C@@H]1CCCB(O)O` [Example 1f, (3aR,4S,5S,6aR)-5-amino-4-(3-boronopropyl)octahydrocyclopenta[c]pyrrole-5-carboxylic acid], the inhibition at 16 µM at Arginase (Top Dose 16000 nM, read-out: Percent Inhibition at Top Dose) was found to be 87.8%.

For the molecule `NC1(C(=O)O)C(CCCB(O)O)C[C@H]2CNC[C@H]21` (mixture of isomers) [Example 28, rac-(3aS,6aR)-4-amino-5-(3-boronopropyl)octahydrocyclopenta[c]pyrrole-4-carboxylic acid], the inhibition at 10 µM on Arginase (setting [5]) came to 90.4%.

In the case of `CC(C)[C@H](N)C(=O)N1C[C@@H]2C[C@@](N)(C(=O)O)[C@@H](CCCB(O)O)[C@@H]2C1` [Example 42, (3aR,4S,5S,6aR)-2-(L-valyl)-5-amino-4-(3-boronopropyl)octahydrocyclopenta[c]pyrrole-5-carboxylic acid], the inhibition at 10 µM on Arginase (setting [5]) was found to be 98%. The IC50 at Arginase worked out at 52 nM.

As for `NC1(C(=O)O)CC2(CNC2)CC1CCCB(O)O` (single isomer, unassigned) [Example 35c, 6-amino-7-(3-boronopropyl)-2-azaspiro[3.4]octane-6-carboxylic acid], the inhibition at 10 µM at Arginase (setting [5]) amounted to 82.3%.

For `C[C@H](N)C(=O)N1C[C@@H]2C[C@@](N)(C(=O)O)[C@@H](CCCB(O)O)[C@@H]2C1` [Example 4, (3aR,4S,5S,6aR)-2-(L-alanyl)-5-amino-4-(3-boronopropyl)octahydrocyclopenta[c]pyrrole-5-carboxylic acid], the inhibition at 10 µM at Arginase (setting [5]) was found to be 97.4%. In addition, at Arginase, the IC50 turned out to be 108 nM.

On to `NC1(C(=O)O)CC2(CCCN2)CC1CCCB(O)O` (stereo not drawn) [Example 37a, rel-7-amino-8-(3-boronopropyl)-1-azaspiro[4.4]nonane-7-carboxylic acid], for which the inhibition at 10 µM on Arginase (setting [5]) stood at 98%.

Regarding `CC1NC[C@@H]2[C@H]1CC(N)(C(=O)O)[C@H]2CCCB(O)O` (stereo partly drawn) [Example 31a, (3aR,4S,6aR)-5-amino-4-(3-boronopropyl)-1-methyloctahydrocyclopenta[c]pyrrole-5-carboxylic acid], at Arginase (setting [5]), the inhibition at 10 µM worked out at 89.9%.

Consider `N[C@@]1(C(=O)O)C[C@H]2CNC(=O)[C@H]2[C@@H]1CCCB(O)O` (single isomer, unassigned) [Example 23b], for which the inhibition at 10 µM on Arginase (setting [5]) came out at 38.8%.

For `NC(=O)CN1CC2CC(N)(C(=O)O)C(CCCB(O)O)C2C1` (centres unmarked) [Example 15, 5-amino-2-(2-amino-2-oxoethyl)-4-(3-boronopropyl)octahydrocyclopenta[c]pyrrole-5-carboxylic acid], the inhibition at 10 µM at Arginase (setting [5]) stood at 88.6%.

(Values after patent US11274111B2, “Arginase inhibitors and methods of use” (Merck Sharp & Dohme Corp., priority 2018, dated 2022).)
